Source: US7790761B2, “Blockade of voltage dependent sodium channels” (University College London, priority 2000, dated 2010)
pIC50: −log10 of the molar value.

What follows are molecules tested on sodium channels (assay: [14C]-labelled guanidine flux through sodium channels). Conditions: inhibition of flux of [14C]-labelled guanidine through sodium channels.
Assay type: biochemical, rat

| Molecule | pIC50 |
| --- | --- |
| Cn1c(SCC(=O)C(C)(C)C)nnc1-c1cc(C(C)(C)C)nn1Cc1ccc(F)cc1 [1-{5-[5-tert-Butyl-2-(4-fluoro-benzyl)-2H-pyrazol-3-yl]-4-methyl-4H-[1,2,4]triazol-3-ylsulfanyl}-3,3-dimethyl-butan-2-one] | 4.89 |
| CCn1nc(C)cc1-c1nnc(SCc2ccccc2)n1-c1ccccc1 [3-(Benzylthio)-5-(1-ethyl-3-methyl-1H-pyrazol-5-yl)-4-phenyl-4H-1,2,4-triazolehemihydrate] | 4.70 |
| C#CCSc1nnc(-c2cc(C(C)(C)C)nn2Cc2ccc(Cl)cc2Cl)n1-c1ccccc1 [3-[3-(tert-Butyl)-1-(2,4-dichlorobenzyl)-1H-pyrazol-5-yl]-4-phenyl-5-(prop-2-ynylthio)-4H-1,2,4-tziazole] | 4.74 |
| Cc1ccc(Cn2nc(C(=O)Nc3ccccc3)cc2C)cc1 [5-Methyl-1-(4-methyl-benzyl)-1H-pyrazole-3-carboxylic acid phenylamide] | 4.64 |
| O=C(NO)c1ccc(-c2nn(Cc3ccccc3)c3ccccc23)o1 [Example 6, 1-Benzyl-3-(5-hydroxylaminocarbonyl-2-furyl)-1H-indazole] | 4.51 |
| O=C(Nc1ccccc1)c1cc(-c2ccccc2)n(-c2ccc(Cl)cc2)n1 [Example 11, 1-(4-Chloro-phenyl)-5-phenyl-1H-pyrazole-3-carboxylic acid phenylamide] | 4.74 |
| CCn1nc(-c2cccs2)cc1C(=O)Nc1ccc(Cl)cc1 [Example 13, 2-Ethyl-5-thiophen-2-yl-2H-pyrazole-3-carboxylic acid (4-chloro-phenyl)-amide] | 4.77 |
| CC(C)(C)c1cc(C(=O)Nc2ccc(Cl)cc2)n(Cc2ccc(Cl)cc2Cl)n1 [Example 14, (S)-5-tert-Butyl-2-(2,4-dichloro-benzyl)-2H-pyrazole-3-carboxylic acid (4-chloro-phenyl)-amide] | 4.54 |
| CC(C)(C)c1cc(C(=O)NCCc2ccccc2)n(Cc2ccc(Cl)cc2Cl)n1 [Example 15, 5-tert-Butyl-2-(2,4-dichloro-benzyl)-2H-pyrazole-3-carboxylic acid phenethyl-amide] | 5.00 |
| CCn1nc(-c2cccs2)cc1C(=O)NCCc1ccccc1 [Example 16, (S)-2-Ethyl-5-thiophen-2-yl-2H-pyrazole-3-carboxylic acid phenethyl-amide] | 4.89 |
| CC(C)(C)c1cc(C(=O)Nc2ccccc2)n(Cc2ccc(Cl)cc2Cl)n1 [Example 17, 5-tert-Butyl-2-(2,4-dichloro-benzyl)-2H-pyrazole-3-carboxylic acid phenylamide] | 5.00 |
| CC(C)(C)c1cc(C(=O)NCc2ccccc2)n(Cc2ccc(Cl)cc2Cl)n1 [Example 18, 5-tert-Butyl-2-(2,4-dichloro-benzyl)-2H-pyrazole-3-carboxylic acid benzylamide] | 5.05 |
| CC(C)(C)c1ccc(NC(=O)c2cc(-c3ccccc3)n(-c3ccc(Cl)cc3)n2)cc1 [Example 20, 1-(4-Chloro-phenyl)-5-phenyl-1H-pyrazole-3-carboxylic acid (4-tert-butyl-phenyl)-amide] | 4.70 |
| CC(C)(C)c1ccc(NC(=O)c2cc(C(C)(C)C)nn2Cc2ccccc2)cc1 [Example 25, 2-Benzyl-5-tert-butyl-2H-pyrazole-3-carboxylic acid (4-tert-butyl-phenyl)-amide] | 4.74 |
| Cn1nc(C(C)(C)C)cc1C(=O)Nc1cccc(-c2cnco2)c1 [Example 29, 5-tert-Butyl-2-methyl-2H-pyrazole-3-carboxylic acid (3-oxazol-5-yl-phenyl)-amide] | 5.05 |
| CC(C)(C)c1cc(NC(=O)c2cc(-c3ccccc3)n(-c3ccc(Cl)cc3)n2)no1 [Example 30, 1-(4-Chloro-phenyl)-5-phenyl-1H-pyrazole-3-carboxylic acid (5-tert-butyl-isoxazol-3-yl)-amide] | 4.82 |
| Cc1cc(C(=O)Nc2ccc(C(=O)Nc3ccccc3)cc2)n(C(C)(C)C)n1 [Example 31, 2-tert-Butyl-5-methyl-2H-pyrazole-3-carboxylic acid (4-phenylcarbamoyl-phenyl)-amide] | 4.66 |
| CC(C)(C)c1cc(C(=O)Nc2cccc(C(=O)Nc3ccccc3)c2)n(Cc2ccccc2)n1 [Example 32, 2-Benzyl-5-tert-butyl-2H-pyrazole-3-carboxylic acid (3-phenylcarbamoyl-phenyl)-amide] | 4.66 |
| Cn1nc(C(C)(C)C)cc1C(=O)Nc1cccc(C(=O)Nc2ccccc2)c1 [Example 33, 5-tert-Butyl-2-methyl-2H-pyrazole-3-carboxylic acid (3-phenylcarbamoyl-phenyl)-amide] | 4.66 |
| CC(=O)Nc1ccc(NC(=O)c2cc(C)n(C(C)(C)C)n2)cc1 [Example 36, 1-tert-Butyl-5-methyl-1H-pyrazole-3-carboxylic acid (4-acetylamino-phenyl)-amide] | 4.64 |
| Cc1cc(C(=O)Nc2ncccc2OCc2ccccc2)nn1C(C)(C)C [Example 37, 1-tert-Butyl-5-methyl-1H-pyrazole-3-carboxylic acid (3-benzyloxy-pyridin-2-yl)-amide] | > 5.05 |
| CC(=O)Nc1ccc(NC(=O)c2cc(C)n(Cc3ccc(C)cc3)n2)cc1 [Example 38, 5-Methyl-1-(4-methyl-benzyl)-1H-pyrazole-3-carboxylic acid (4-acetylamino-phenyl)-amide] | 4.85 |
| CC(=O)Nc1ccc(NC(=O)c2cc(C(C)(C)C)nn2Cc2ccc(Cl)cc2Cl)cc1 [Example 39, 5-tert-Butyl-2-(2,4-dichloro-benzyl)-2H-pyrazole-3-carboxylic acid (4-acetylamino-phenyl)-amide] | 4.62 |
| CCn1nc(-c2cccs2)cc1C(=O)Nc1ccc(NC(C)=O)cc1 [Example 40, 2-Ethyl-5-thiophen-2-yl-2H-pyrazole-3-carboxylic acid (4-acetylamino-phenyl)-amide] | > 5.05 |

The next lines start with the values.

| pIC50 | Molecule |
| --- | --- |
| > 5.05 | 5-[3-tert-Butyl-1-(2,4-dichlorobenzyl)pyrazol-5-yl]-4-methyltriazole-3-thiol |
| 5.52 | CC(C)(C)c1cc(C(=O)Nc2ccc(Br)c(Cl)c2)n(Cc2ccccc2)n1 [2-Benzyl-5-tert-butyl-2H-pyrazole-3-carboxylic acid (4-bromo-3-chloro-phenyl)-amide] |
| 5.36 | CC(C)(C)c1cc(C(=O)Nc2ccc(Cl)cc2)n(Cc2ccccc2)n1 [2-Benzyl-5-tert-butyl-2H-pyrazole-3-carboxylic acid (4-chloro-phenyl)-amide] |
| 6.30 | CC(C)(C)c1cc(C(=O)NNC(=O)Nc2cccc(C(F)(F)F)c2)n(Cc2ccccc2)n1 [2-Benzyl-5-tert-butyl-2H-pyrazole-3-carboxylic arid N′-(3-trifluoromethylphenylcarbamoyl)hydrazide] |
| 5.22 | Cc1ccc(Cn2nc(C)cc2C(=O)Nc2cccc(C(F)(F)F)c2)cc1 [5-Methyl-2-(4-methyl-benzyl)-2H-pyrazole-3-carboxylic acid (3-trifluoromethyl-phenyl)-amide] |
| > 5.05 | Cc1cccc(Cn2nc(C(C)(C)C)cc2-c2nnc(S)n2C2CCCCC2)c1 [5-[3-(tert-Butyl)-1-(3-methylbenzyl)pyrazol-5-yl]-4-cyclohexyl-1,2,4-triazole-3-thiol] |
| > 5.05 | CCOC(=O)CSc1nnc(-c2cc(C(C)(C)C)nn2Cc2cccc(C)c2)n1C1CCCCC1 [Ethyl 2-([5-[3-(tert-butyl)-1-(3-methylbenzyl)-1H-pyrazol-5-yl]-4-cyclohexyl-4H-1,2,4-triazol-3-yl]thio)acetate] |
| > 5.05 | CC(C)(C)c1cc(C(=O)Nc2ccccc2)n(Cc2ccccc2)n1 [Example 9, 2-Benzyl-5-tert-butyl-2H-pyrazole-3-carboxylic acid phenylamide] |
| 5.15 | CC(C)(C)c1cc(C(=O)NCc2ccccc2)n(Cc2ccccc2)n1 [Example 10, 2-Benzyl-5-tert-butyl-2H-pyrazole-3-carboxylic acid benzylamide] |
| > 5.05 | COc1ccc(NC(=O)c2cc(C(C)(C)C)nn2Cc2ccc(Cl)cc2Cl)cc1 [Example 12, 5-tert-Butyl-2-(2,4-dichloro-benzyl)-2H-pyrazole-3-carboxylic acid (4-methoxy-phenyl)-amide] |
| 5.30 | CN(C)c1ccc(NC(=O)c2cc(-c3ccccc3)n(-c3ccc(Cl)cc3)n2)cc1 [Example 19, 1-(4-Chloro-phenyl)-5-phenyl-1H-pyrazole-3-carboxylic acid (4-dimethylamino-phenyl)-amide] |
| > 5.05 | Cc1cc(C(=O)Nc2ccc(C(C)(C)C)cc2)n(C(C)(C)C)n1 [Example 21, 2-tert-Butyl-5-methyl-2H-pyrazole-3-carboxylic acid (4-tert-butyl-phenyl)-amide] |
| > 5.05 | Cc1cc(C(=O)Nc2ccc(Cl)c(Cl)c2)n(C(C)(C)C)n1 [Example 22, 2-tert-Butyl-5-methyl-2H-pyrazole-3-carboxylic acid (3,4-dichloro-phenyl)-amide] |
| > 5.05 | Cn1nc(C(C)(C)C)cc1C(=O)Nc1ccc(Cl)c(Cl)c1 [Example 23, 5-tert-Butyl-2-methyl-2H-pyrazole-3-carboxylic acid (3,4-dichloro-phenyl)-amide] |
| > 5.05 | CC(C)(C)c1cc(C(=O)Nc2ccc(Cl)c(Cl)c2)n(Cc2ccccc2)n1 [Example 24, 2-Benzyl-5-tert-butyl-2H-pyrazole-3-carboxylic acid (3,4-dichloro-phenyl)-amide] |
| > 5.05 | CN(C)c1ccc(NC(=O)c2cc(C(C)(C)C)nn2Cc2ccccc2)cc1 [Example 27, 2-Benzyl-5-tert-butyl-2H-pyrazole-3-carboxylic acid (4-dimethylamino-phenyl)-amide] |
| > 5.05 | CC(C)(C)c1cc(C(=O)Nc2cccc(-c3cnco3)c2)n(Cc2ccccc2)n1 [Example 28, 2-Benzyl-5-tert-butyl-2H-pyrazole-3-carboxylic acid (3-oxazol-5-yl-phenyl)-amide] |
| > 5.05 | CC(C)(C)c1cc(C(=O)Nc2ccc(Cl)nc2)n(Cc2ccccc2)n1 [Example 34, 2-Benzyl-5-tert-butyl-2H-pyrazole-3-carboxylic acid (6-chloro-pyridin-3-yl)-amide] |
| 5.30 | Cc1cc(C(=O)Nc2ccc(Cl)nc2)nn1C(C)(C)C [Example 35, 1-tert-Butyl-5-methyl-1H-pyrazole-3-carboxylic acid (6-chloro-pyridin-3-yl)-amide] |
